{"source": "patent US20240360417A1", "about": "“CELL THERAPEUTIC AGENT FOR CANCER TREATMENT AND COMBINATION THERAPY WITH SAME” (Cell&Brain Co., Ltd, priority 2015, published 2024)", "key": {"U87/GFP": {"tested_on": "U87/GFP", "assay": "In vitro combination therapy of F cells + 5-FC with irinotecan (isobologram)", "assay_type": "cell-based", "conditions": "144 h; U87/GFP co-cultured with F cells (MSC/CD), 6 days; read-out: IC50 values obtained by treatment alone", "description": "10,000 U87/GFP and 10,000 F cells (MSC/CD) were cultured in a 12-well plate. From the next day, the cells were treated with Irinotecan (Sigma) at a concentration of 0 to 30 μM and the prodrug 5-FC at a concentration of 0 to 300 μM, and cultured for 6 days while replacing with a new medium containing the drug once every two days. On the 7th day, the culture solution was removed, 200 μl of 1× passive lysis buffer was then added to each well, and each well was allowed to stand at 4° C. for 10 minutes. The cell lysate was collected and centrifuged at 12,000 rpm for 5 minutes to obtain supernatant. 100 μl of the supernatant was transferred to a black 96-well plate in which light is blocked, and the intensity of fluorescence was measured under conditions of excitation 488 nm and emission 530 nm using a fluorimeter (GEMINI EM)."}, "[1]": {"tested_on": "U87MG glioma cells expressing LacZ", "assay": "In vivo combination therapy with temozolomide, orthotopic brain tumor model", "conditions": "survival measured up to 90 days", "description": "On the 6th days after transplantation of U87MG glioma cells expressing LacZ, the F cells prepared in Preparation Example 2 were suspended in a Plasma Solution A, followed by centrifugation at 500×g for 5 minutes. The supernatant was discarded, and the washing procedure was repeated twice. Then, the cell suspension was prepared to have a concentration of 3×10^5/6 μl. The cell suspension was transplanted at a rate of 0.3 μl/min at the brain coordinates of AP=+0.5 mm, ML=−1.8 mm, and DV=−3 mm. From the next day after the cell transplantation, 5-FC (15 mg/ml physiological saline) was intraperitoneally injected at a dose of 500 mg/kg for one week. […] On 28th day, brain tissues were obtained from 8 animals in each animal group and X-gal staining was performed in the same manner as in Example 2 to measure the size of brain tumor."}}}
{"smiles": "Nc1nc(=O)[nH]cc1F", "note": "[5-FC, 5-fluorocytosine]", "values": [{"measurement": "IC50", "setting": "U87/GFP", "value": 73.6, "unit": "µM"}]}
{"smiles": "CCc1c2c(nc3ccc(OC(=O)N4CCC(N5CCCCC5)CC4)cc13)-c1cc3c(c(=O)n1C2)COC(=O)[C@]3(O)CC", "note": "[irinotecan]", "values": [{"measurement": "IC50", "setting": "U87/GFP", "value": 3.2, "unit": "µM"}]}
{"smiles": "Cn1nnc2c(C(N)=O)ncn2c1=O", "note": "[temozolomide]", "values": [{"measurement": "median survival", "setting": "[1]", "value": 42, "unit": "days"}]}
